Laboratory results reported in patent publication US20210085467A1, “SELECTIVE TARGETED RELEASE” (WEST VIRGINIA UNIVERSITY, priority 2018, published 2021).

Assays:
[1] = test system: free floating bacteria; assay: Drug levels necessary to treat free floating bacteria; conditions: planktonic bacteria
[2] = test system: biofilm infections; assay: Drug levels necessary to treat biofilm infections

CN[C@H](CC(C)C)C(=O)N[C@H]1C(=O)N[C@@H](CC(N)=O)C(=O)N[C@H]2C(=O)N[C@H]3C(=O)N[C@H](C(=O)N[C@H](C(=O)O)c4cc(O)cc(O)c4-c4cc3ccc4O)[C@H](O)c3ccc(c(Cl)c3)Oc3cc2cc(c3O[C@@H]2O[C@H](CO)[C@@H](O)[C@H](O)[C@H]2O[C@H]2C[C@](C)(N)[C@H](O)[C@H](C)O2)Oc2ccc(cc2Cl)[C@H]1O [vancomycin]
drug levels necessary to treat free floating bacteria [1]: 1 to 10 µg/mL
drug levels necessary to treat biofilm infections [2]: 10 to 100 µg/mL
